Measurements published in patent US20250121078A1, “PEPTIDE DRUG CONJUGATES AND THEIR USES” (priority 2023, published 2025).
Where a SMILES comes first, the peptide text is derived from it. [ ]: non-standard residue; d: D form. The star is where a group is joined. Paclitaxel(2'-O-succinyl) = CC(=O)O[C@H]1C(=O)[C@@]2(C)[C@H]([C@H](OC(=O)c3ccccc3)[C@]3(O)C[C@H](OC(=O)[C@H](OC(=O)CCC(=O)*)[C@@H](NC(=O)c4ccccc4)c4ccccc4)C(C)=C1C3(C)C)[C@]1(OC(C)=O)CO[C@@H]1C[C@@H]2O; Propanoyl(3-SS-DM1) = COc1cc2cc(c1Cl)N(C)C(=O)C[C@H](OC(=O)[C@H](C)N(C)C(=O)CCSSCCC(=O)*)[C@]1(C)O[C@H]1[C@H](C)[C@@H]1C[C@@](O)(NC(=O)O1)[C@H](OC)/C=C/C=C(\C)C2; d(hArg(Et2)) = CCN=C(NCC)NCCCC[C@@H](N)C(=O)O; hArg(Et2) = CCN=C(NCC)NCCCC[C@H](N)C(=O)O; dPhe(4-Cl) = N[C@H](Cc1ccc(Cl)cc1)C(=O)O; d2Nal = N[C@H](Cc1ccc2ccccc2c1)C(=O)O; dCit = NC(=O)NCCC[C@@H](N)C(=O)O; d3Pal = N[C@H](Cc1cccnc1)C(=O)O

Each molecule was assayed against T1, LHRHR, also known as GnRHR (Homo sapiens, UniProt P30968) (assay: Radioligand binding assay ([125I]-[D-Trp6]-LHRH displacement)). Details: not given.
T1 sequence (P30968 1-328): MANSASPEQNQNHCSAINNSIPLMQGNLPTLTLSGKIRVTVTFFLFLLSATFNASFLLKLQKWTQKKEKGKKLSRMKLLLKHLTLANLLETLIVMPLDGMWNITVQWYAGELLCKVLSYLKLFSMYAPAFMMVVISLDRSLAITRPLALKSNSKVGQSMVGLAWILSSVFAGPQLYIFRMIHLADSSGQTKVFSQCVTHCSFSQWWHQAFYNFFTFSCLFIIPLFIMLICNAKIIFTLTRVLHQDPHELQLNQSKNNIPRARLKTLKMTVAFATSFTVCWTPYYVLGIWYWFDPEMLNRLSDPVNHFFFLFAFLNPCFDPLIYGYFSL
Method: An amount of 2 μg of a purified membrane with LHRHR, also known as GnRHR, was incubated with 0.18 nM [125I]-[D-Trp6]-LHRH and compounds of interest in the incubation buffer (50 mM HEPES, pH 7.4, 5 mM MgCl2, 1 mM CaCl2, and 0.2% BSA). The reaction mixtures were incubated for 1 h at 25° C. and then were transferred to a 96-well GF/B filter plate (Millipore Corp., Billerica, MA, USA), which were terminated by manifold filtration and washed with a wash buffer (50 mM HEPES, pH 7.4, and 100 mM NaCl) for six times. The radioactivity bound to the filter was measured by a Topcount® system (PerkinElmer Inc., Waltham, MA, USA). IC50 values were determined by the concentration of a compound required to inhibit 50% of the specific binding of [125I]-[D-Trp6]-LHRH and calculated by nonlinear regression (GraphPad Software, San Diego, CA, USA). The design of these drug conjugates is to actively targeting LHRH-receptor at tumor site and facilitate drug conjugate accumulation in situ. Therefore, selective and strong binding of the synthetic peptide ligand with the receptor is important to allow enrichment of these conjugates, followed by release of the drug payload in the tumor microenvironment.
Compounds of the invention have a binding as low as 0.17 nM.

Structure (SMILES)	IC50 [nM]
COc1cc2cc(c1Cl)N(C)C(=O)C[C@H](OC(=O)[C@H](C)N(C)C(=O)CCSC(=O)OCc1ccc(O[Si](OCCCn3nnc4c3CC[C@@H]3[C@H](CC4)[C@H]3COC(=O)N(CCCC[C@H](NC(=O)[C@H](CC(C)C)NC(=O)[C@@H](Cc3ccc(NC(N)=O)cc3)NC(=O)[C@H](Cc3ccc(NC(=O)[C@@H]4CC(=O)NC(=O)N4)cc3)NC(=O)[C@H](CO)NC(=O)[C@@H](Cc3cccnc3)NC(=O)[C@@H](Cc3ccc(Cl)cc3)NC(=O)[C@@H](Cc3ccc4ccccc4c3)NC(C)=O)C(=O)N3CCC[C@H]3C(=O)N[C@H](C)C(N)=O)C(C)C)(C(C)C)C(C)C)cc1)[C@]1(C)O[C@H]1[C@H](C)[C@@H]1C[C@@](O)(NC(=O)O1)[C@H](OC)/C=C/C=C(\C)C2 [Compound 19]	1 to 10
CCNC(=NCCCC[C@H](NC(=O)[C@H](CC(C)C)NC(=O)[C@@H](CCCCNC(=O)CCSSCCC(=O)N(C)[C@@H](C)C(=O)O[C@H]1CC(=O)N(C)c2cc(cc(OC)c2Cl)C/C(C)=C/C=C/[C@@H](OC)[C@@]2(O)C[C@H](OC(=O)N2)[C@@H](C)[C@@H]2O[C@@]12C)NC(=O)[C@H](Cc1ccc(O)cc1)NC(=O)[C@H](CO)NC(=O)[C@@H](Cc1cccnc1)NC(=O)[C@@H](Cc1ccc(Cl)cc1)NC(=O)[C@@H](Cc1ccc2ccccc2c1)NC(C)=O)C(=O)N1CCC[C@H]1C(=O)N[C@H](C)C(N)=O)NCC [Compound 23] (Ac-[d2Nal][dPhe(4-Cl)][d3Pal]SY[dK](Propanoyl(3-SS-DM1))L[hArg(Et2)]P[dA]-NH2)	0.1 to 1
COc1cc2cc(c1Cl)N(C)C(=O)C[C@H](OC(=O)[C@H](C)N(C)C(=O)CCSSCCC(=O)NCCCC[C@@H](NC(=O)[C@H](Cc1ccc(O)cc1)NC(=O)[C@H](CO)NC(=O)[C@@H](Cc1cccnc1)NC(=O)[C@@H](Cc1ccc(Cl)cc1)NC(=O)[C@@H](Cc1ccc3ccccc3c1)NC(C)=O)C(=O)N[C@@H](CC(C)C)C(=O)N[C@H](CCCNC(=N)N)C(=O)N1CCC[C@H]1C(=O)N[C@H](C)C(N)=O)[C@]1(C)O[C@H]1[C@H](C)[C@@H]1C[C@@](O)(NC(=O)O1)[C@H](OC)/C=C/C=C(\C)C2 [Compound 24] (Ac-[d2Nal][dPhe(4-Cl)][d3Pal]SY[dK](Propanoyl(3-SS-DM1))L[dR]P[dA]-NH2)	1 to 10

Same assay, conditions: purified membrane with LHRHR, 0.18 nM [125I]-[D-Trp6]-LHRH, 1 h at 25° C.; read-out: Binding Assay

Structure (SMILES)	IC50 [nM]
CC(=O)N[C@H](Cc1ccc2ccccc2c1)C(=O)N[C@H](Cc1ccc(Cl)cc1)C(=O)N[C@H](Cc1cccnc1)C(=O)N[C@@H](CO)C(=O)N[C@H](CCCCN)C(=O)N[C@H](CCCNC(N)=O)C(=O)N[C@@H](CC(C)C)C(=O)N[C@@H](CCCNC(=N)N)C(=O)N1CCC[C@H]1C(=O)N[C@H](C)C(N)=O [Compound 1] (Ac-[d2Nal][dPhe(4-Cl)][d3Pal]S[dK][dCit]LRP[dA]-NH2)	> 100
CC(=O)N[C@H](Cc1ccc2ccccc2c1)C(=O)N[C@H](Cc1ccc(Cl)cc1)C(=O)N[C@H](Cc1cccnc1)C(=O)N[C@@H](CO)C(=O)N[C@@H](Cc1ccc(O)cc1)C(=O)N[C@H](CCCCN)C(=O)N[C@@H](CC(C)C)C(=O)N[C@@H](CCCNC(=N)N)C(=O)N1CCC[C@H]1C(=O)N[C@H](C)C(N)=O [Compound 2] (Ac-[d2Nal][dPhe(4-Cl)][d3Pal]SY[dK]LRP[dA]-NH2)	0.1 to 1
CC(=O)N[C@H](Cc1ccc2ccccc2c1)C(=O)N[C@H](Cc1ccc(Cl)cc1)C(=O)N[C@H](Cc1cccnc1)C(=O)N[C@@H](CO)C(=O)N[C@@H](Cc1ccc(O)cc1)C(=O)N[C@H](CCCNC(N)=O)C(=O)N[C@H](CCCCN)C(=O)N[C@@H](CCCNC(=N)N)C(=O)N1CCC[C@H]1C(=O)N[C@H](C)C(N)=O [Compound 3] (Ac-[d2Nal][dPhe(4-Cl)][d3Pal]SY[dCit][dK]RP[dA]-NH2)	10 to 100
CCNC(=NCCCC[C@@H](NC(=O)[C@H](CCCCN)NC(=O)[C@H](CO)NC(=O)[C@@H](Cc1cccnc1)NC(=O)[C@@H](Cc1ccc(Cl)cc1)NC(=O)[C@@H](Cc1ccc2ccccc2c1)NC(C)=O)C(=O)N[C@@H](CC(C)C)C(=O)N[C@H](CCCCN=C(NCC)NCC)C(=O)N1CCC[C@H]1C(=O)N[C@H](C)C(N)=O)NCC [Compound 4] (Ac-[d2Nal][dPhe(4-Cl)][d3Pal]SK[d(hArg(Et2))]L[d(hArg(Et2))]P[dA]-NH2)	> 100
CCNC(=NCCCC[C@@H](NC(=O)[C@H](Cc1ccc(O)cc1)NC(=O)[C@H](CO)NC(=O)[C@@H](Cc1cccnc1)NC(=O)[C@@H](Cc1ccc(Cl)cc1)NC(=O)[C@@H](Cc1ccc2ccccc2c1)NC(C)=O)C(=O)N[C@H](CCCCN)C(=O)N[C@H](CCCCN=C(NCC)NCC)C(=O)N1CCC[C@H]1C(=O)N[C@H](C)C(N)=O)NCC [Compound 5] (Ac-[d2Nal][dPhe(4-Cl)][d3Pal]SY[d(hArg(Et2))][dK][d(hArg(Et2))]P[dA]-NH2)	> 100
CCNC(=NCCCC[C@@H](NC(=O)[C@@H](CCCCNC(=O)CCC(=O)O[C@@H](C(=O)O[C@H]1C[C@@]2(O)[C@@H](OC(=O)c3ccccc3)[C@@H]3[C@]4(OC(C)=O)CO[C@@H]4C[C@H](O)[C@@]3(C)C(=O)[C@H](OC(C)=O)C(=C1C)C2(C)C)[C@@H](NC(=O)c1ccccc1)c1ccccc1)NC(=O)[C@H](CO)NC(=O)[C@@H](Cc1cccnc1)NC(=O)[C@@H](Cc1ccc(Cl)cc1)NC(=O)[C@@H](Cc1ccc2ccccc2c1)NC(C)=O)C(=O)N[C@@H](CC(C)C)C(=O)N[C@H](CCCCN=C(NCC)NCC)C(=O)N1CCC[C@H]1C(=O)N[C@H](C)C(N)=O)NCC [Compound 7] (Ac-[d2Nal][dPhe(4-Cl)][d3Pal]S[dK](Paclitaxel(2'-O-succinyl))[d(hArg(Et2))]L[d(hArg(Et2))]P[dA]-NH2)	> 100
CCNC(=NCCCC[C@H](NC(=O)[C@H](CC(C)C)NC(=O)[C@@H](CCCCN)NC(=O)[C@H](Cc1ccc(O)cc1)NC(=O)[C@H](CO)NC(=O)[C@@H](Cc1cccnc1)NC(=O)[C@@H](Cc1ccc(Cl)cc1)NC(=O)[C@@H](Cc1ccc2ccccc2c1)NC(C)=O)C(=O)N1CCC[C@H]1C(=O)N[C@H](C)C(N)=O)NCC [Compound 12] (Ac-[d2Nal][dPhe(4-Cl)][d3Pal]SY[dK]L[hArg(Et2)]P[dA]-NH2)	0.1 to 1
CC(=O)N[C@H](Cc1ccc2ccccc2c1)C(=O)N[C@H](Cc1ccc(Cl)cc1)C(=O)N[C@H](Cc1cccnc1)C(=O)N[C@@H](CO)C(=O)N[C@@H](Cc1ccc(O)cc1)C(=O)N[C@H](CCCCN)C(=O)N[C@@H](CC(C)C)C(=O)N[C@H](CCCNC(=N)N)C(=O)N1CCC[C@H]1C(=O)N[C@H](C)C(N)=O [Compound 13] (Ac-[d2Nal][dPhe(4-Cl)][d3Pal]SY[dK]L[dR]P[dA]-NH2)	10 to 100
COc1cccc2c1C(=O)c1c(O)c3c(c(O)c1C2=O)C[C@@](O)(C(=O)CO)C[C@@H]3O[C@H]1C[C@H](NC(=O)OCc2ccc(NC(=O)[C@H](C)NC(=O)[C@@H](NC(=O)c3ccc(COCCOCCOCCn4nnc5c4CC[C@H]4[C@@H](CC5)[C@@H]4COC(=O)NCCCC[C@@H](NC(=O)[C@H](Cc4ccc(O)cc4)NC(=O)[C@H](CO)NC(=O)[C@@H](Cc4cccnc4)NC(=O)[C@@H](Cc4ccc(Cl)cc4)NC(=O)[C@@H](Cc4ccc5ccccc5c4)NC(C)=O)C(=O)N[C@@H](CC(C)C)C(=O)N[C@@H](CCCNC(=N)N)C(=O)N4CCC[C@H]4C(=O)N[C@H](C)C(N)=O)cc3)C(C)C)cc2)[C@H](O)[C@H](C)O1 [Compound 17]	0.1 to 1
COc1cc2cc(c1Cl)N(C)C(=O)C[C@H](OC(=O)[C@H](C)N(C)C(=O)CCSC(=O)OC[C@H]1[C@@H]3CCc4c(nnn4CCCC[C@@H](NC(=O)[C@H](Cc4ccc(O)cc4)NC(=O)[C@H](CO)NC(=O)[C@@H](Cc4cccnc4)NC(=O)[C@@H](Cc4ccc(Cl)cc4)NC(=O)[C@@H](Cc4ccc5ccccc5c4)NC(C)=O)C(=O)N[C@@H](CC(C)C)C(=O)N[C@@H](CCCNC(=N)N)C(=O)N4CCC[C@H]4C(=O)N[C@H](C)C(N)=O)CC[C@@H]31)[C@]1(C)O[C@H]1C(C)[C@@H]1C[C@@](O)(NC(=O)O1)[C@H](OC)/C=C/C=C(\C)C2 (stereo partly shown) [Compound 20]	0.1 to 1
